Test results taken from patent publication US7601717B2, “Pterin analogs” (BioMarin Pharmaceutical Inc., priority 2008, dated 2009).
Counter-ions that a name gives are not always drawn.

How the values were obtained:
[1] = Pharmacokinetics and bioavailability, single intravenous or oral doses, partial Latin square crossover; format: in vivo, male cynomolgus monkeys; details: male, cynomolgus monkey, plasma; intravenous; title 5 mg/kg, text 2 mg/kg; n=6
[2] = tested on: human umbilical vein endothelial cells (HUVEC); test: Nitric oxide production (nitrite+nitrate) in NAS-treated HUVEC; format: cell-based; details: 5-22 hours treatment
Procedure: Cultured human umbilical vein endothelial cells (HUVEC) were pretreated with 3 mM N-acetylserotonin (NAS), an inhibitor of the enzyme sepiapterin reductase. Inhibition of this pathway typically results in loss of endogenous BH4, depressing the endogenous eNOS activity far below normal and provides an assay to test for restoration of eNOS activity.
Thus, subconfluent HUVECs were seeded in a 24-well plate and grown overnight in EGM2 medium (full growth medium). The next morning, fresh medium was added to the cells (300 μL/well), 3 mM N-acetylserotonin (NAS), an inhibitor of the enzyme sepiapterin reductase (a member of the synthesis pathway for endogenous BH4) was added to the cells to decrease the endogenous BH4 levels. After an incubation of 1.5 hours, 50, 100, or […] BH4 or compound of Example 5, Example 6, Example 7, or Example 9 were added to the cells. The cells were allowed to react with the BH4 or the compound of Example 5, Example 7, or Example 9 for 5-22 hours. The production of NO was then measured as changes in total (nitrite+nitrate) by the Griess reaction subsequent to nitrate reductase treatment. 90 μL of reaction mixture (25 mM Tris-HCL, pH7.4, 1 μM FAD, 1 μM FMN, 100 μM L-Arginin 2.5 mM CaCl2, 1 mM NADPH, 0.04 mg/ml Calmodulin) was mixed with 5 μl of eNOS (15 units/ml) and 5 μl of BH4 or BH4 analogs (1, 10, 100 μM), followed by incubation in a 37° C. water bath for 90 minutes. Then 100 μl of water and 20 μl of the nitrite fluorescent probe DAN (2,3-diaminonaphthalene, 316 μM) were added to each reaction and incubated at room temperature for 10 minutes. The dye DAN reacts with nitrite to yield the fluorescent product naphthotriazole. The reaction was then stopped by adding 10 μl of NaOH (2.8 M), and the fluorescence of the samples was read using excitation frequency 375 nm and emission frequency 415 nm. The percentage of nitrite+nitrate with BH4 or compound of Example 5, Example 7, or Example 9 is shown in FIG. 17 (after 5 hours); FIG. 18 (after 17 hours); and FIG. 19 (after 22 hours). The results for Example 6 are shown in FIG. 20 (after 5 hours) and FIG. 21 (after 20 hours).

[3] = tested on: Spontaneously Hypertensive rats (SHR); test: Anti-hypertensive effect, tail-cuff systolic blood pressure in SHR; format: in vivo, rat; details: SHR; for decrease in systolic blood pressure (SBP): 3 weeks
Procedure: This study was to determine if the BH4 analogs have a similar hypotensive effect and to determine the steady state pharmacokinetics (PK) profiles of plasma BH4 concentrations.
Male Wistar-Kyoto (WKY) rats and SHR rats (Elevage Janvier, France, 7 weeks old) were housed seven days prior to the beginning of experiments with free access to standard chow and water and maintained on an inversed 12 h dark/light cycle (10:00/22:00). After a one week acclimation period, the animals were trained to the tail-cuff system during one week (3 sessions). The following week, two baseline measurements of blood pressure were performed.
The rats (10 weeks old) then received respective treatments of water, vehicle, 2, 10, or 30 mg/kg/day of BH4 analog (Example 5, Val-BH4) or 100 mg/kg/day BH4 by oral gavage (8 mL/kg, dissolved in 100 μM ascorbic acid) performed once a day during 21 days of treatment. The doses of BH4 analog were prepared as mg/kg equivalents of BH4 (calculated using BH4 and BH4 analog 2HCl molecular weights). Body weight was monitored 3 times per week and the most recent body weight was used to adjust drug and vehicle daily intake. Seven experimental groups of rats were evaluated: Group 1—normotensive WKY rats and water gavage; Group 2—hypertensive SHR rats and water gavage; Group 3—hypertensive SHR rats and vehicle gavage; Group 4—hypertensive SHR rats and BH4 100 mg/kg/day gavage; Group 5—hypertensive SHR rats and BH4 analog 2 mg/kg/day gavage; Group 6—hypertensive SHR rats and BH4 analog 10 mg/kg/day gavage; Group 7—hypertensive SHR rats and 30 mg/kg/day BH4 analog gavage. To account for animal loss or animal disqualification during experimental handling, 10 rats were used in each group, with the expectation to obtain interpretable results for at least 8. Systolic blood pressure (SBP) and heart rate (HR) were measured twice weekly during the 3-week treatment period.
Systolic blood pressure (SBP) and heart rate (HR) were measured using the tail-cuff method, twice before the beginning of the treatment and twice weekly during the 3 week treatment period (6 measurements during the treatment period). Rats were placed in a plastic restraint and warmed to […]. A pneumatic pulse sensor was attached to the tail. After cuff inflation, SBP was measured and HR was determined by counting pulse numbers per minute. Data for each rat was taken an average of at least 4 stable readings. At least 10 cuff inflations were performed for each BP measurement.

CC(C)[C@H](N)C(=O)O[C@@H](C)[C@H](O)[C@H]1CNc2nc(N)[nH]c(=O)c2N1 [Example 5, 2-Amino-3-methyl-butyric acid 2-(2-amino-4-oxo-3,4,5,6,7,8-hexahydro-pteridin-6-yl)-2-hydroxy-1-methyl-ethyl ester dihydrochloride]
AUC(0-inf) [1]: 5.24 µM·h
AUC(0-t) [1]: 4.17 µM·h
Cmax [1]: 13.1 µM
Tmax [1]: 4.8 min
NO production (nitrite+nitrate) [2]: increased NO production in a dose-dependent manner
decrease in systolic blood pressure (SBP) ([3]; 2 mg/kg/day oral gavage (BH4 equivalents)): 6.8 mmHg
decrease in SBP compared with BH4 100 mg/kg ([3]; 10 mg/kg/day during 3 weeks, FIG. 31): decreased SBP to the same extent as a 10-fold greater dose of BH4
decrease in systolic blood pressure (SBP) ([3]; 10 mg/kg/day oral gavage (BH4 equivalents)): 13.9 mmHg
decrease in systolic blood pressure (SBP) ([3]; 30 mg/kg/day oral gavage (BH4 equivalents)): 13.7 mmHg
